Laboratory results as given in patent publication US11224591B2 (Cipla Limited, priority 2016, dated 2022).

Experiments:
[1] = Caco-2 bidirectional assay (A-B and B-A) to study the effect of piperine (P-gp inhibitor) on the permeability; format: in vitro ADME; settings: human
Procedure: (§1) Caco-2 cells were cultured in MEM media with 10% serum and seeded at a density of 75000 cells per mL and cultured for 21 days in a 24-well trans-well plate at 37° C., 5% CO2. The monolayer integrity was checked intermittently (Day 0-21) using Trans Epithelial Electric Resistance (TEER). Cells were treated with drugs as follows:
(§2) 2) Bidirectional Assay (A-B and B-A) to Study the Effect of Piperine (P-Gp Inhibitor) on the Permeability
(§3) For A-B, 400 μL samples were added to the wells as per the plate setup to the apical side in duplicates with 800 μL HBSS pH 7.4 in the basal wells. Samples were collected at 60, 90 and 120 minutes from the basal side. Mass balance samples at 0 and 120 minutes were collected from the apical side.
(§4) For B-A, 800 μL of the respective dilutions were added to the basal side in duplicates with 400 μL HBSS pH 7.4 in the apical wells. Samples were collected at 60, 90 and 120 minutes from the apical side. Mass balance samples at 0 and 120 minutes were collected from the basal side. The sample were analyzed on LCMS-MS.
(§5) At the end of the experiment the monolayer integrity was checked using and Lucifer yellow, calculating the % rejection of Lucifer yellow by incubating cells with 100 μg/mL Lucifer.
(§6) The apparent permeability (Papp) in units per second can be calculated by using the following equation,
(§7) For Lucifer yellow, % Lucifer Yellow Passage=[RFU(test)−RFU(blank)/RFU(equilibrium)−RFU(blank)]*100

Caco-2 cells = assay: as above; format: in vitro ADME; settings: across the caco-2 monolayer; conclusion in words
Procedure: as §1, §2, §3, §4, §5, §6, §7

[2] = Digoxin 10 μM, Caco-2 monolayer, HBSS pH 7.4

efflux ratio at 120 min, 10 μM ([1]; Caco-2, pH 7.4, Digoxin 10 μM, Papp B-A/Papp A-B) | Papp A→B at 120 min, 10 μM [1, 2] [×10⁻⁶ cm/s] | Papp B→A at 120 min, 10 μM [1, 2] [×10⁻⁶ cm/s] | Papp A→B at 120 min, 30 μM ([1]; Caco-2, pH 7.4) [×10⁻⁶ cm/s] | Papp B→A at 120 min, 30 μM ([1]; Caco-2, pH 7.4) [×10⁻⁶ cm/s] | Permeability classification (Caco-2 cells) | Structure (SMILES)
12 | 0.829 | 9.97 |  |  |  | C[C@H]1O[C@@H](O[C@H]2[C@@H](O)C[C@H](O[C@H]3[C@@H](O)C[C@H](O[C@H]4CC[C@@]5(C)[C@H](CC[C@@H]6[C@@H]5C[C@@H](O)[C@]5(C)[C@@H](C7=CC(=O)OC7)CC[C@]65O)C4)O[C@@H]3C)O[C@@H]2C)C[C@H](O)[C@@H]1O [Digoxin]
 |  |  | 1.08 | 6.17 | high | CO[C@H]1/C=C/O[C@@]2(C)Oc3c(C)c(O)c4c(O)c(c5c(nc6cc(C)ccn65)c4c3C2=O)NC(=O)/C(C)=C\C=C\[C@H](C)[C@H](O)[C@@H](C)[C@@H](O)[C@@H](C)[C@H](OC(C)=O)[C@@H]1C [Rifaximin, [(2S,16Z,18E,20S,21S,22R,23R,24R,25S,26S,27S,28E)-5,6,21,23,25-pentahydroxy-27-methoxy-2,4,11,16,20,22,24,26-octamethyl-2,7 (epoxypentadeca-[1,11,13]trienimino)benzofuro[4,5-e]pyrido[1,2-a]-benzimidazole 1,15(2H)-dione,25-acetate]]
